Results published in patent US20050070510A1, “Substituted tetracycline compounds as synergistic antifungal agents” (Paratek Pharmaceuticals, Inc., priority 2001, published 2005).

test system: COS-1 cells; assay: In vitro mammalian cytotoxicity assay (Resazurin)

Row | SMILES | In Vitro Cytotoxicity
1 | CN(C)[C@@H]1C(O)=C(C(N)=O)C(=O)[C@@]2(C#N)C(O)=C3C(=O)c4c(O)c(I)cc(I)c4[C@H](N)[C@@]3(N)[C@H](O)[C@@]12N [CT] | ** (toxicities less than 25 μg/mL are represented by **)
2 | CCOP(=O)(OCC)C(Nc1ccccc1)c1ccc(-c2cc(N(C)C)c3c(c2O)C(=O)C2=C(O)[C@]4(C#N)C(=O)C(C(N)=O)=C(O)[C@@H](N(C)C)[C@]4(N)C[C@]2(N)C3)cc1 (stereo partly drawn) [KP] | * (toxicities greater than >25 μg/ml are represented by *)
3 | Cc1ccc(-c2ccc(O)c3c2C[C@@]2(N)C[C@@]4(N)[C@H](N(C)C)C(O)=C(C(N)=O)C(=O)[C@@]4(C#N)C(O)=C2C3=O)cc1C [OJ] | ** (toxicities less than 25 μg/mL are represented by **)
4 | CN(C)c1cc(-c2ccc(CN3CCCC3)o2)c(O)c2c1C[C@@]1(N)C[C@@]3(N)[C@H](N(C)C)C(O)=C(C(N)=O)C(=O)[C@@]3(C#N)C(O)=C1C2=O [SQ] | * (toxicities greater than >25 μg/ml are represented by *)
5 | Cc1ccc(-c2ccc(O)c3c2C[C@@]2(N)C[C@@]4(N)[C@H](N(C)C)C(O)=C(C(N)=O)C(=O)[C@@]4(C#N)C(O)=C2C3=O)s1 [GJ] | ** (toxicities less than 25 μg/mL are represented by **)
6 | CN(C)[C@@H]1C(O)=C(C(N)=O)C(=O)[C@@]2(C#N)C(O)=C3C(=O)c4c(ccc(/C=C\C(=O)NC(C)(C)C)c4O)[C@H](N)[C@@]3(N)[C@H](O)[C@@]12N [JA] | * (toxicities greater than >25 μg/ml are represented by *)
7 | CC(=O)c1ccc(-c2ccc3c(c2O)C(=O)C2=C(O)[C@]4(C#N)C(=O)C(C(N)=O)=C(O)[C@@H](N(C)C)[C@]4(N)[C@@H](O)[C@]2(N)[C@H]3N)cc1 [QP] | ** (toxicities less than 25 μg/mL are represented by **)
8 | CN(C)[C@@H]1C(O)=C(C(N)=O)C(=O)[C@@]2(C#N)C(O)=C3C(=O)c4c(O)ccc(CNCc5cccn5C)c4C[C@@]3(N)C[C@@]12N [SH] | * (toxicities greater than >25 μg/ml are represented by *)
9 | CCOc1ccc(-c2ccc(O)c3c2C[C@@]2(N)C[C@@]4(N)C(N(C)C)C(O)=C(C(N)=O)C(=O)[C@@]4(C#N)C(O)=C2C3=O)cc1CNC(=O)C(F)(F)F (stereo partly drawn) [QQ] | * (toxicities greater than >25 μg/ml are represented by *)
10 | COCCOC(=O)Nc1ccc(-c2ccc(O)c3c2C[C@@]2(N)C[C@@]4(N)[C@H](N(C)C)C(O)=C(C(N)=O)C(=O)[C@@]4(C#N)C(O)=C2C3=O)cc1 [PY] | * (toxicities greater than >25 μg/ml are represented by *)
11 | COc1ccc(CN2CCOCC2)cc1-c1ccc(O)c2c1C[C@@]1(N)C[C@@]3(N)[C@H](N(C)C)C(O)=C(C(N)=O)C(=O)[C@@]3(C#N)C(O)=C1C2=O [HU] | * (toxicities greater than >25 μg/ml are represented by *)
12 | CCOC(=O)C(NCc1ccc(OC)c(-c2ccc(O)c3c2C[C@@]2(N)C[C@@]4(N)[C@H](N(C)C)C(O)=C(C(N)=O)C(=O)[C@@]4(C#N)C(O)=C2C3=O)c1)C(C)C (stereo partly drawn) [NZ] | ** (toxicities less than 25 μg/mL are represented by **)
13 | CCC(=O)c1ccc(O)c2c1C[C@@]1(N)C[C@@]3(N)[C@H](N(C)C)C(O)=C(C(N)=O)C(=O)[C@@]3(C#N)C(O)=C1C2=O [LI] | ** (toxicities less than 25 μg/mL are represented by **)
14 | CCC(=O)O[C@H]1[C@@]2(N)C(=C(O)[C@]3(C#N)C(=O)C(C(N)=O)=C(O)[C@@H](N(C)C)[C@]13N)C(=O)c1c(ccc(C(C)(C)C)c1O)[C@@H]2N [BC] | ** (toxicities less than 25 μg/mL are represented by **)
15 | CN(C)c1ccc(O)c2c1C[C@@]1(N)C[C@@]3(N)[C@H](N(C)C)C(O)=C(C(=O)NCNC(=O)CCl)C(=O)[C@@]3(C#N)C(O)=C1C2=O [KG] | ** (toxicities less than 25 μg/mL are represented by **)
16 | CC(N)CNCc1cc(N(C)C)c2c(c1O)C(=O)C1=C(O)[C@]3(C#N)C(=O)C(C(N)=O)=C(O)[C@@H](N(C)C)[C@]3(N)C[C@]1(N)C2 (stereo partly drawn) [SV] | * (toxicities greater than >25 μg/ml are represented by *)
17 | CN(C)[C@@H]1C(O)=C(C(N)=O)C(=O)[C@@]2(C#N)C(O)=C3C(=O)c4c(ccc(NC=O)c4O)C(N)[C@@]3(N)[C@H](O)[C@@]12N (stereo partly drawn) [DC] | ** (toxicities less than 25 μg/mL are represented by **)
18 | C=CCCNC(=O)NCc1cc(N(C)C)c2c(c1O)C(=O)C1=C(O)[C@]3(C#N)C(=O)C(C(N)=O)=C(O)[C@@H](N(C)C)[C@]3(N)C[C@]1(N)C2 [MD] | * (toxicities greater than >25 μg/ml are represented by *)
19 | CN(C)c1cc(CNC(=O)Nc2ccc(Cl)cc2)c(O)c2c1C[C@@]1(N)C[C@@]3(N)[C@H](N(C)C)C(O)=C(C(N)=O)C(=O)[C@@]3(C#N)C(O)=C1C2=O [MW] | ** (toxicities less than 25 μg/mL are represented by **)
20 | CN(C)c1cc(CNC(=O)c2ccco2)c(O)c2c1C[C@@]1(N)C[C@@]3(N)[C@H](N(C)C)C(O)=C(C(N)=O)C(=O)[C@@]3(C#N)C(O)=C1C2=O [SW] | * (toxicities greater than >25 μg/ml are represented by *)
21 | CN(C)c1cc(C#CCc2ccccc2)c(O)c2c1C[C@@]1(N)C[C@@]3(N)[C@H](N(C)C)C(O)=C(C(N)=O)C(=O)[C@@]3(C#N)C(O)=C1C2=O [KL] | ** (toxicities less than 25 μg/mL are represented by **)

Row | SMILES | In Vitro Cytotoxicity
22 | CCCCNC(=O)NCc1cc(N(C)C)c2c(c1O)C(=O)C1=C(O)[C@]3(C#N)C(=O)C(C(N)=O)=C(O)[C@@H](N(C)C)[C@]3(N)C[C@]1(N)C2 [MG] | * (toxicities greater than >25 μg/ml are represented by *)
23 | Cc1cc(CNCc2cc(N(C)C)c3c(c2O)C(=O)C2=C(O)[C@]4(C#N)C(=O)C(C(N)=O)=C(O)[C@@H](N(C)C)[C@]4(N)C[C@]2(N)C3)[nH]c1C [SP] | * (toxicities greater than >25 μg/ml are represented by *)
24 | CN(C)CC(=O)NCc1cc(N(C)C)c2c(c1O)C(=O)C1=C(O)[C@]3(C#N)C(=O)C(C(N)=O)=C(O)[C@@H](N(C)C)[C@]3(N)C[C@]1(N)C2 [LG] | ** (toxicities less than 25 μg/mL are represented by **)
25 | CCC(C)CNCc1cc(N(C)C)c2c(c1O)C(=O)C1=C(O)[C@]3(C#N)C(=O)C(C(N)=O)=C(O)[C@@H](N(C)C)[C@]3(N)C[C@]1(N)C2 (stereo partly drawn) [SZ] | * (toxicities greater than >25 μg/ml are represented by *)
26 | CN(C)c1cc(-c2ccc(F)cc2F)c(O)c2c1C[C@@]1(N)C[C@@]3(N)[C@H](N(C)C)C(O)=C(C(N)=O)C(=O)[C@@]3(C#N)C(O)=C1C2=O [EX] | ** (toxicities less than 25 μg/mL are represented by **)
27 | CCc1cc(C#Cc2ccc(OC)cc2)c(O)c2c1C[C@@]1(N)C[C@@]3(N)[C@H](N(C)C)C(O)=C(C(N)=O)C(=O)[C@@]3(C#N)C(O)=C1C2=O [LH] | ** (toxicities less than 25 μg/mL are represented by **)
28 | CN(C)CCN(C)Cc1ccc(-c2cc(N(C)C)c3c(c2O)C(=O)C2=C(O)[C@]4(C#N)C(=O)C(C(N)=O)=C(O)[C@@H](N(C)C)[C@]4(N)C[C@]2(N)C3)s1 [ST] | * (toxicities greater than >25 μg/ml are represented by *)
29 | CN(C)CCCc1ccc(O)c2c1C[C@@]1(N)C[C@@]3(N)[C@H](N(C)C)C(O)=C(C(=O)NC(C)(C)C)C(=O)[C@@]3(C#N)C(O)=C1C2=O [HH] | * (toxicities greater than >25 μg/ml are represented by *)
30 | CCCCCc1cc(CC2C(=O)c3ccccc3C2=O)c(O)c2c1C[C@@]1(N)C[C@@]3(N)[C@H](N(C)C)C(O)=C(C(N)=O)C(=O)[C@@]3(C#N)C(O)=C1C2=O [LA] | ** (toxicities less than 25 μg/mL are represented by **)
31 | CN(C)[C@@H]1C(O)=C(C(N)=O)C(=O)[C@@]2(C#N)C(O)=C3C(=O)c4c(O)ccc(-c5ccc(NC(=O)CNC(C)(C)C)cc5)c4C[C@@]3(N)C[C@@]12N [UZ] | ** (toxicities less than 25 μg/mL are represented by **)
32 | CC#Cc1cc(N(C)C)c2c(c1O)C(=O)C1=C(O)[C@]3(C#N)C(=O)C(C(N)=O)=C(O)[C@@H](N(C)C)[C@]3(N)C[C@]1(N)C2 [FH] | * (toxicities greater than >25 μg/ml are represented by *)
33 | Cc1cc(C)cc(-c2cc(N(C)C)c3c(c2O)C(=O)C2=C(O)[C@]4(C#N)C(=O)C(C(N)=O)=C(O)[C@@H](N(C)C)[C@]4(N)C[C@]2(N)C3)c1 [HD] | ** (toxicities less than 25 μg/mL are represented by **)
34 | CN(C)c1cc(NC(=O)NC(=O)c2ccccc2)c(O)c2c1C[C@@]1(N)C[C@@]3(N)[C@H](N(C)C)C(O)=C(C(N)=O)C(=O)[C@@]3(C#N)C(O)=C1C2=O [IK] | * (toxicities greater than >25 μg/ml are represented by *)
35 | CN(C)[C@@H]1C(O)=C(C(N)=O)C(=O)[C@@]2(C#N)C(O)=C3C(=O)c4c(O)ccc(C5CCCC5)c4C[C@@]3(N)C[C@@]12N [JB] | ** (toxicities less than 25 μg/mL are represented by **)
36 | CN(C)[C@@H]1C(O)=C(C(N)=O)C(=O)[C@@]2(C#N)C(O)=C3C(=O)c4c(O)ccc(/C=C/c5ccccn5)c4C[C@@]3(N)C[C@@]12N [FA] | ** (toxicities less than 25 μg/mL are represented by **)
37 | CN(C)[C@@H]1C(O)=C(C(N)=O)C(=O)[C@@]2(C#N)C(O)=C3C(=O)c4c(ccc(Br)c4O)[C@H](N)[C@@]3(N)[C@H](O)[C@@]12N [CO] | * (toxicities greater than >25 μg/ml are represented by *)
38 | CN(C)CC(=O)NCc1ccc(-c2ccc(O)c3c2C[C@@]2(N)C[C@@]4(N)[C@H](N(C)C)C(O)=C(C(N)=O)C(=O)[C@@]4(C#N)C(O)=C2C3=O)cc1 [NY] | ** (toxicities less than 25 μg/mL are represented by **)
39 | CCc1ccc(-c2cc(N(C)C)c3c(c2O)C(=O)C2=C(O)[C@]4(C#N)C(=O)C(C(N)=O)=C(O)[C@@H](N(C)C)[C@]4(N)C[C@]2(N)C3)cc1 [LZ] | ** (toxicities less than 25 μg/mL are represented by **)
40 | CN(C)c1cc(-c2ccc(OC(F)(F)F)cc2)c(O)c2c1C[C@@]1(N)C[C@@]3(N)[C@H](N(C)C)C(O)=C(C(N)=O)C(=O)[C@@]3(C#N)C(O)=C1C2=O [MA] | ** (toxicities less than 25 μg/mL are represented by **)
41 | CC(=O)C(N)c1cc(C(C)(C)C)c(O)c2c1C[C@@]1(N)C[C@@]3(N)[C@H](N(C)C)C(O)=C(C(N)=O)C(=O)[C@@]3(C#N)C(O)=C1C2=O (stereo partly drawn) [NN] | * (toxicities greater than >25 μg/ml are represented by *)
42 | CN(C)[C@@H]1C(O)=C(C(N)=O)C(=O)[C@@]2(C#N)C(O)=C3C(=O)c4c(O)ccc(-c5cc6ccccc6o5)c4C[C@@]3(N)C[C@@]12N [FM] | * (toxicities greater than >25 μg/ml are represented by *)
